# Measured values published in US8017350B2, “Glimepiride- and insulin-induced glycosylphosphatidylinositol-specific phospholipase C regulation” (Sanofi-Aventis Deutschland GmbH, priority 2004, dated 2011).
# What was measured:
# [1] = tested on: Hormone-sensitive lipase (HSL); assay: hormone-sensitive lipase assay (radiolabeled triolein emulsion); assay type: biochemical; settings: 50 μM
# Method: (§1) Hormone-sensitive lipase (HSL) and lipoprotein lipase (LPL) were measured using a radiolabeled triolein droplet emulsion as described in “Vertesy et al., (2002) Journal Antibiotics 55:480-494”. Pancreatic lipase (PL) was determined by incubation of 0.25 mmol tributyrin in 2 ml of 5 mM Tris/HCl (pH 6.5), 6 mM sodium taurodeoxycholate, 150 mM NaCl, 1 mM CaCl2 with porcine PL and colipase in the same buffer using a recording pH stat (stirring at 1000 rpm at 25° C.) with the pH adjusted to 6.5. PC-PLC was assayed by incubation of 0.2 ml of 10 mM dipalmitoyllecithin, 0.1 ml of 10 mM SDC and 0.1 ml of 0.03 M CaCl2 with bacterial PC-PLC (in 50 mM Tris/HCl, pH 7.5, 0.1% BSA) for 10 min at 37° C. The reaction was terminated by addition of 0.1 ml of 50% TCA and subsequently of 2.5 ml of […]. After centrifugation (1500×g, 15 min), 0.2-ml portions of the upper methanol/water phase (˜1.33 ml) were removed, supplemented with 0.5 ml of 60% HClO4, then heated at 170° C. for 1 h and finally analyzed for inorganic phosphate. Mammalian PI-PLC was measured by incubation of 0.1 ml of 10 mM PI, 0.1 ml of 0.8% sodium deoxycholate, 0.1% BSA, 0.2 ml of 100 mM sodium borate (pH 7.5) and rat liver PI-PLC for 20 min at 37° C. The reaction was terminated and further processed as described for the PC-PLC. […] Radioactive phosphatidic acid was detected by phosphorimaging. […]
# [2] = target: T1, bacterial PC-PLC (Bacillus cereus) (Bacillus cereus, UniProt P09598); assay: PC-PLC assay (dipalmitoyllecithin); assay type: biochemical; settings: 50 μM
# T1 construct: purchased SigmalAldrich (Deisenhofen, Germany)
# T1 sequence (P09598 39-283 limits assumed): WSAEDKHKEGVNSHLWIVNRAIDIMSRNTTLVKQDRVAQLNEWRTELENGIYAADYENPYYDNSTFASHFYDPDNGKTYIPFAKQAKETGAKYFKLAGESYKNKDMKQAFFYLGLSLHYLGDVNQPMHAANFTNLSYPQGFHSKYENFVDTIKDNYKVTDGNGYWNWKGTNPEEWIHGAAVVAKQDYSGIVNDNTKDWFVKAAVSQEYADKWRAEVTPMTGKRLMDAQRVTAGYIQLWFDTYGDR
# Method: as §1
# [3] = Stability of compound 3; assay type: physicochemical; settings: 4° C.
# Method: As starting material, racemic 1,4,5,6-tetra-O-benzyl-myo-inositol (hereinafter: compound 1) was prepared by a procedure as disclosed in “Zhai, H.-X. et al. (1995) Tetrahedron Lett. 36: 7403-7406”. Compound 1 was then phosphorylated with dodecylphosphonic dichloride in the presence of triethylamine and dimethyl-aminopyridine to yield tetra-O-benzyl-myo-inositol-1,2-cyclo-dodecylphosphonic acid (hereinafter: compound 2). By catalytic hydrogenation with 10% Pd on charcoal, compound 2 was debenzylated to myo-inositol-1,2-cyclo-dodecylphosphonic acid (hereinafter: compound 3 or GPI-2350) as a mixture of diastereomers. For synthesis of compound 2 (FIG. 1), 1 g (1.8 mmol) of compound 1 was dissolved in 60 ml of methylene chloride and 1 ml of triethylamine; 200 mg dimethyl-aminopyridine and 1 g ([…]) of dodecylphosphonic dichloride were added. This reaction solution was allowed to stand (45 min, room temperature). Then 50 ml of ethyl acetate were added and the mixture was filtered on silica gel. After concentration of the solvent, the residue was purified by flash chromatography (n-heptane/ethyl acetate, 1/1, by vol.). Yield of compound 2: 580 mg (43%) of a white amorphous solid. TLC: n-heptane/ethyl acetate (1/1, by vol.), Rf=0.7. MS: (M+Li)^+=761.4, calculated […], M=754.9. […] MS: (M+Li)^+=401.2, calculated C18H35O7P, M=394.4.
smiles,measurement,setting,value
"CCCCCCCCCCCCP1(=O)O[C@@H]2[C@H](O)[C@@H](O)[C@H](O)[C@@H](O)[C@@H]2O1 (stereo partly drawn) [GPI-2350, myo-inositol-1,2-cyclo-dodecylphosphonic acid]",effect on HSL,[1],not significantly affected
same,effect on PC-PLC,[2],not significantly affected
same,stability as dried amorphous solid,[3],as dried amorphous solid for years at 4 °C
